As a reminder, the Tmax is the time from dosing to the highest level.

The values that follow come from doi:10.1101/2023.11.09.566408v1 (bioRxiv, 2023).

Molecules are shown by their SMILES.

Data set [1] is classed as in vivo, mice. As to conditions: male, Swiss, mouse, plasma, po, 100 ug.
For data set [2] the following is noted: rats, IV, cited from earlier work.

For the molecule `CC[C@H](C)[C@H](NC(=O)[C@@H]1CCCN1C(=O)CNC(=O)[C@H](Cc1ccccc1)NC(=O)[C@H](CC(N)=O)NC(=O)[C@H](CC(N)=O)NC(=O)[C@H](CO)NC(=O)[C@H](CO)NC(=O)[C@H](Cc1c[nH]cn1)NC(=O)[C@@H](NC(=O)[C@H](CC(C)C)NC(=O)[C@H](Cc1ccccc1)NC(=O)[C@H](CC(N)=O)NC(=O)[C@H](C)NC(=O)[C@H](CC(C)C)NC(=O)[C@H](CCCNC(=N)N)NC(=O)[C@H](CCC(N)=O)NC(=O)[C@@H](NC(=O)[C@H](C)NC(=O)[C@@H]1CSSC[C@H](NC(=O)[C@@H](N)CCCCN)C(=O)N[C@@H](CC(N)=O)C(=O)N[C@@H]([C@@H](C)O)C(=O)N[C@@H](C)C(=O)N[C@@H]([C@@H](C)O)C(=O)N1)[C@@H](C)O)C(C)C)C(=O)N[C@@H](CC(C)C)C(=O)N1CCC[C@H]1C(=O)N1CCC[C@H]1C(=O)N[C@H](C(=O)N[C@@H](CC(N)=O)C(=O)N[C@H](C(=O)NCC(=O)N[C@@H](CO)C(=O)N[C@@H](CC(N)=O)C(=O)N[C@H](C(=O)N[C@@H](Cc1ccc(O)cc1)C(N)=O)[C@@H](C)O)C(C)C)[C@@H](C)O` [pramlintide], in data set [1], the time of peak concentration (Tmax) is 30 min. For the same molecule, the plasma concentration in data set [2] (1 μg) is 1,000 pM. Also, the plasmatic concentration in data set [2] (10 μg) is on record as 10,000 pM.
